Test system: 653999-131-R-J2-PDC complex spheroid viability
Test: Anticancer human tumor 653999-131-R-J2-PDC patient-derived lung adenocarcinoma cell line growth inhibition
Settings: for IC50: curve of first compound; for viability, T/C: stronger effect = lower value
Method in brief: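 Complex spheroids of tumor cells with HUVEC and human MSCs, exposed to iadademstat combined with other agents. Each agent tested in half-log steps from near clinical Cmax (else 10 microM top), DMSO ≤0.25%.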

[1] = second compound 0.1 µM, first compound 0.000949 µM
[2] = second compound 0.1 µM, first compound 0.003 µM
[3] = second compound 0.1 µM, first compound 0.00949 µM
[4] = second compound 0.1 µM, first compound 0.03 µM
[5] = second compound 0.1 µM, first compound 0.0949 µM
[6] = second compound 0.1 µM, first compound 0.3 µM
[7] = second compound 0.316 µM, first compound 0.000949 µM
[8] = second compound 0.316 µM, first compound 0.003 µM
[9] = second compound 0.316 µM, first compound 0.00949 µM
[10] = second compound 0.316 µM, first compound 0.03 µM
[11] = second compound 0.316 µM, first compound 0.0949 µM
[12] = second compound 0.316 µM, first compound 0.3 µM
[13] = second compound 1 µM, first compound 0.000949 µM
[14] = second compound 1 µM, first compound 0.003 µM
[15] = second compound 1 µM, first compound 0.00949 µM
[16] = second compound 1 µM, first compound 0.03 µM
[17] = second compound 1 µM, first compound 0.0949 µM
[18] = second compound 1 µM, first compound 0.3 µM
[19] = second compound 3.16 µM, first compound 0.000949 µM
[20] = second compound 3.16 µM, first compound 0.003 µM
[21] = second compound 3.16 µM, first compound 0.00949 µM
[22] = second compound 3.16 µM, first compound 0.03 µM
[23] = second compound 3.16 µM, first compound 0.0949 µM
[24] = second compound 3.16 µM, first compound 0.3 µM
[25] = second compound 10 µM, first compound 0.000949 µM
[26] = second compound 10 µM, first compound 0.003 µM
[27] = second compound 10 µM, first compound 0.00949 µM
[28] = second compound 10 µM, first compound 0.03 µM
[29] = second compound 10 µM, first compound 0.0949 µM
[30] = second compound 10 µM, first compound 0.3 µM
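Note: spheroids exposed to agents for seven days before readout.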

With `CC[C@@]1(O)C(=O)OCc2c1cc1n(c2=O)Cc2cc3c(CN(C)C)c(O)ccc3nc2-1` + NC1CCC(NC2CC2c2ccccc2)CC1 the IC50 (second compound 0.1 µM) was 4.65 nM, the IC50 (second compound 0.316 µM) was 5.23 nM and the IC50 (second compound 1 µM) was 4.8 nM. The IC50 (second compound 3.16 µM) was 5.51 nM, the IC50 (second compound 10 µM) was 6.87 nM and the viability, T/C (second compound 0.1 µM, first compound 0.000316 µM) was 89.3%. For the same compound, the viability, T/C (second compound 0.1 µM, first compound 0.001 µM) was 85.3%, the viability, T/C (second compound 0.1 µM, first compound 0.00316 µM) was 50.7% and the viability, T/C (second compound 0.1 µM, first compound 0.01 µM) was 40.2%. It also gave a viability, T/C (second compound 0.1 µM, first compound 0.0316 µM) of 27.5%, a viability, T/C (second compound 0.1 µM, first compound 0.1 µM) of 19.8% and a viability, T/C (second compound 0.316 µM, first compound 0.000316 µM) of 87%. The viability, T/C (second compound 0.316 µM, first compound 0.001 µM) was 80.4%, the viability, T/C (second compound 0.316 µM, first compound 0.00316 µM) was 57.9% and the viability, T/C (second compound 0.316 µM, first compound 0.01 µM) was 37.9%. For the same compound, the viability, T/C (second compound 0.316 µM, first compound 0.0316 µM) was 26.2%, the viability, T/C (second compound 0.316 µM, first compound 0.1 µM) was 18% and the viability, T/C (second compound 1 µM, first compound 0.000316 µM) was 94.7%. It also gave a viability, T/C (second compound 1 µM, first compound 0.001 µM) of 73.2%, a viability, T/C (second compound 1 µM, first compound 0.00316 µM) of 61.6% and a viability, T/C (second compound 1 µM, first compound 0.01 µM) of 35.9%. It also gave a viability, T/C (second compound 1 µM, first compound 0.0316 µM) of 25.1%, a viability, T/C (second compound 1 µM, first compound 0.1 µM) of 21.6% and a viability, T/C (second compound 3.16 µM, first compound 0.000316 µM) of 78.7%. The viability, T/C (second compound 3.16 µM, first compound 0.001 µM) was 75.3%, the viability, T/C (second compound 3.16 µM, first compound 0.00316 µM) was 52.7% and the viability, T/C (second compound 3.16 µM, first compound 0.01 µM) was 44.1%. It also gave a viability, T/C (second compound 3.16 µM, first compound 0.0316 µM) of 29.9%, a viability, T/C (second compound 3.16 µM, first compound 0.1 µM) of 20.7% and a viability, T/C (second compound 10 µM, first compound 0.000316 µM) of 91.9%. For the same compound, the viability, T/C (second compound 10 µM, first compound 0.001 µM) was 77.9%, the viability, T/C (second compound 10 µM, first compound 0.00316 µM) was 63.9% and the viability, T/C (second compound 10 µM, first compound 0.01 µM) was 44.3%. For the same compound, the viability, T/C (second compound 10 µM, first compound 0.0316 µM) was 27.1% and the viability, T/C (second compound 10 µM, first compound 0.1 µM) was 19.7%.

For `CCc1c2c(nc3ccc(O)cc13)-c1cc3c(c(=O)n1C2)COC(=O)[C@]3(O)CC` + NC1CCC(NC2CC2c2ccccc2)CC1, the IC50 (second compound 0.1 µM) was < 0.949 nM, the IC50 (second compound 0.316 µM) was < 0.949 nM and the IC50 (second compound 1 µM) was < 0.949 nM. The IC50 (second compound 3.16 µM) was < 0.949 nM, the IC50 (second compound 10 µM) was < 0.949 nM and the viability, T/C [1] was 22%. The viability, T/C [2] was 13.8%, the viability, T/C [3] was 11.8% and the viability, T/C [4] was 7.96%. The viability, T/C [5] was 5.01%, the viability, T/C [6] was 5% and the viability, T/C [7] was 19.8%. The viability, T/C [8] was 15.9%, the viability, T/C [9] was 9.62% and the viability, T/C [10] was 7.91%. It also gave a viability, T/C [11] of 3.58%, a viability, T/C [12] of 6.63% and a viability, T/C [13] of 21.6%. For the same compound, the viability, T/C [14] was 15.2%, the viability, T/C [15] was 9.88% and the viability, T/C [16] was 7.86%. It also gave a viability, T/C [17] of 4.29%, a viability, T/C [18] of 4.06% and a viability, T/C [19] of 22.2%. For the same compound, the viability, T/C [20] was 17.5%, the viability, T/C [21] was 12.6% and the viability, T/C [22] was 7.56%. It also gave a viability, T/C [23] of 4.32%, a viability, T/C [24] of 3.82% and a viability, T/C [25] of 25.5%. For the same compound, the viability, T/C [26] was 15.8%, the viability, T/C [27] was 9.94% and the viability, T/C [28] was 6.03%. It also gave a viability, T/C [29] of 2.71% and a viability, T/C [30] of 2.44%.

In the case of `COc1cc(C2c3cc4c(cc3C(OC3OC5COC(C)OC5C(O)C3O)C3COC(=O)C23)OCO4)cc(OC)c1O` (stereo not given) + NC1CCC(NC2CC2c2ccccc2)CC1, the IC50 (second compound 0.1 µM) is reported as 88.4 nM, the IC50 (second compound 0.316 µM) is reported as 123 nM and the IC50 (second compound 1 µM) is reported as 64.5 nM. It also gave an IC50 (second compound 3.16 µM) of 168 nM, an IC50 (second compound 10 µM) of 241 nM and a viability, T/C [3] of 70.8%. For the same compound, the viability, T/C [4] was 61.6%, the viability, T/C [5] was 48.6% and the viability, T/C [6] was 38.2%. For the same compound, the viability, T/C (second compound 0.1 µM, first compound 0.949 µM) was 37.6%, the viability, T/C (second compound 0.1 µM, first compound 3 µM) was 28.3% and the viability, T/C [9] was 68.6%. For the same compound, the viability, T/C [10] was 63.7%, the viability, T/C [11] was 54.5% and the viability, T/C [12] was 36.6%. It also gave a viability, T/C (second compound 0.316 µM, first compound 0.949 µM) of 31.3%, a viability, T/C (second compound 0.316 µM, first compound 3 µM) of 29.7% and a viability, T/C [15] of 74.5%. The viability, T/C [16] was 52.6%, the viability, T/C [17] was 50.2% and the viability, T/C [18] was 35.7%. The viability, T/C (second compound 1 µM, first compound 0.949 µM) was 37.5%, the viability, T/C (second compound 1 µM, first compound 3 µM) was 26.8% and the viability, T/C [21] was 71.5%. The viability, T/C [22] was 66.6%, the viability, T/C [23] was 55.9% and the viability, T/C [24] was 44.9%. The viability, T/C (second compound 3.16 µM, first compound 0.949 µM) was 31.3%, the viability, T/C (second compound 3.16 µM, first compound 3 µM) was 30.3% and the viability, T/C [27] was 68.3%. It also gave a viability, T/C [28] of 60.6%, a viability, T/C [29] of 57.7% and a viability, T/C [30] of 49.9%. The viability, T/C (second compound 10 µM, first compound 0.949 µM) was 37.3% and the viability, T/C (second compound 10 µM, first compound 3 µM) was 31.3%.

With `Nc1ccn(C2OC(CO)C(O)C2(F)F)c(=O)n1` (stereo not given) + NC1CCC(NC2CC2c2ccccc2)CC1 the IC50 (second compound 0.1 µM) was 8.36 nM, the IC50 (second compound 0.316 µM) was 2.64 nM and the IC50 (second compound 1 µM) was 7.34 nM. It also gave an IC50 (second compound 3.16 µM) of 6.64 nM, an IC50 (second compound 10 µM) of 23 nM and a viability, T/C [1] of 64.2%. The viability, T/C [2] was 62.6%, the viability, T/C [3] was 46.7% and the viability, T/C [4] was 38.7%. It also gave a viability, T/C [5] of 34.5%, a viability, T/C [6] of 30.1% and a viability, T/C [7] of 58.4%. It also gave a viability, T/C [8] of 45.5%, a viability, T/C [9] of 47.8% and a viability, T/C [10] of 30.8%. The viability, T/C [11] was 30.6%, the viability, T/C [12] was 27.3% and the viability, T/C [13] was 56%. It also gave a viability, T/C [14] of 55.8%, a viability, T/C [15] of 48.4% and a viability, T/C [16] of 36.6%. It also gave a viability, T/C [17] of 34.8%, a viability, T/C [18] of 31.3% and a viability, T/C [19] of 70.5%. For the same compound, the viability, T/C [20] was 52.2%, the viability, T/C [21] was 47.5% and the viability, T/C [22] was 45%. It also gave a viability, T/C [23] of 34.8%, a viability, T/C [24] of 33.1% and a viability, T/C [25] of 65.2%. It also gave a viability, T/C [26] of 64.7%, a viability, T/C [27] of 59% and a viability, T/C [28] of 47.8%. For the same compound, the viability, T/C [29] was 40.4% and the viability, T/C [30] was 43.8%.

Reference: PubChem BioAssay AID1918939 (Molecular Pharmacology Branch, DTP, NCI, 2023)
